Results reported in ChEMBL document CHEMBL2385058, “Progress and developments in tau aggregation inhibitors for Alzheimer disease” (J Med Chem, 2013).

Columns and labels:
Homo sapiens [1] = organism: Homo sapiens; assay: Selectivity ratio of IC50 for full length human tau40 aggregation to IC50 for tau K19 aggregation (unknown origin)
[2] = Inhibition of full length human tau40 aggregation
[3] = Inhibition of tau K19 aggregation (unknown origin); parameters: species or system Homo sapiens
[4] = target: T1, Microtubule-associated protein tau (Homo sapiens, UniProt P10636); assay: Inhibition of human recombinant brain tau protein (412 amino acid residues) filament assembly expressed in Escherichia coli BL21(DE3) by electron microscopic analysis in presence of heparin
N2a [5] = assay: Inhibition of tau K18 deltaK280 mutant aggregation in mouse N2A cells at 10 uM measured over 5 days by thioflavin S fluorescence assay relative to control; assay type: cell-based
[6] = Inhibition of tau K18 aggregation in mouse N2A cells; assay type: cell-based
Homo sapiens [7] = organism: Homo sapiens; assay: Induction of tau K19 (unknown origin) disaggregation assessed as decrease in paired helical filament formation measured disassembly-inducing half maxima after 10 days by thioflavin S fluorescence assay in presence of heparin
[8] = Oral bioavailability in diabetic neuropathy patient at 150 mg/day; assay type: ADME, organism-based; details: human, in vivo
[9] = Tmax in amyotrophic lateral sclerosis patient; details: human, in vivo
[10] = Inhibition of tau K19 (unknown origin) aggregation assessed as inhibition of paired helical filament formation after 10 days by thioflavin S fluorescence assay in presence of heparin; parameters: species or system Homo sapiens
[11] = Terminal half life in rat at 100 mg, iv; assay type: ADME, organism-based; details: in vivo, read-out: beta t1/2 (converted)
[12] = target: T1, Microtubule-associated protein tau; assay: Inhibition of tau protein aggregation (unknown origin)
N2a [13] = assay: Cytotoxicity against mouse N2A cells at 10 uM after 24 hrs by LDH assay relative to control; assay type: cell-based
Homo sapiens [14] = organism: Homo sapiens; assay: Induction of tau K19 (unknown origin) disaggregation assessed as decrease in paired helical filament formation measured disassembly-inducing half maxima by thioflavin S fluorescence assay
[15] = Inhibition of tau K19 protein (unknown origin) aggregation by thioflavin S fluorescence assay; parameters: species or system Homo sapiens
[16] = Inhibition of K18 P301L mutant (unknown origin) fibril formation after 1 hr by thioflavin T fluorescence assay; parameters: species or system Homo sapiens
[17] = target: T1, Microtubule-associated protein tau; assay: Induction of tau protein (unknown origin) disaggregation assessed as disassembly-inducing half maxima
[18] = Binding affinity to tau K19 (unknown origin) assessed as dissociation constant by STD-NMR analysis; parameters: species or system Homo sapiens
Homo sapiens [19] = organism: Homo sapiens; assay: Induction of tau K19 (unknown origin) disaggregation assessed as disassembly-inducing half maxima
[20] = target: T1, Microtubule-associated protein tau; assay: Inhibition of tau protein aggregation (unknown origin) at 5:1 compound to protein concentration by Western blot analysis
[21] = target: Amyloid-beta precursor protein (Homo sapiens, UniProt P05067); assay: Inhibition of amyloid beta (1 to 40) (unknown origin) fibril formation after 18 hrs by DELFIA
[22] = Inhibition of […] human tau K18 aggregation

T1 sequence (P10636 whole entry): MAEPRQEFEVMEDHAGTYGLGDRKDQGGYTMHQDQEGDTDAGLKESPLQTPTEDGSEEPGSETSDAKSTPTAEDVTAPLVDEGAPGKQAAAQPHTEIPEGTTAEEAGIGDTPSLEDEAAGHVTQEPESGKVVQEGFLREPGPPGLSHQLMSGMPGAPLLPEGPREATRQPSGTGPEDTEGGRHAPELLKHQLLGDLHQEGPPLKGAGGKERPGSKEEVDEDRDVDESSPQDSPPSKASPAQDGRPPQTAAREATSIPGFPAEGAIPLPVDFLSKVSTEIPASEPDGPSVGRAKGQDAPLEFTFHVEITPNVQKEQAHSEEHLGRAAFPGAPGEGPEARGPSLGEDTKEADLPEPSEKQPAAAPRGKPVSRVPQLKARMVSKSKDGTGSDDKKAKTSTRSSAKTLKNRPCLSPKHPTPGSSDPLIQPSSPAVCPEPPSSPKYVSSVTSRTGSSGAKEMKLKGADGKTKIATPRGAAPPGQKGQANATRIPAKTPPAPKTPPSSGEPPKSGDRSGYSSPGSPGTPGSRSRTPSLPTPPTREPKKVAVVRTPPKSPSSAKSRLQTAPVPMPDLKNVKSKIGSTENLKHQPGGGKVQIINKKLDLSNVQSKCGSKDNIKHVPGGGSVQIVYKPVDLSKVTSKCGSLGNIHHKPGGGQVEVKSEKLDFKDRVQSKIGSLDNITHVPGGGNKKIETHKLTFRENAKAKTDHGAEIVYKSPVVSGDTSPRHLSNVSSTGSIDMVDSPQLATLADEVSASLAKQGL
Chain of Amyloid-beta precursor protein (P05067 whole entry): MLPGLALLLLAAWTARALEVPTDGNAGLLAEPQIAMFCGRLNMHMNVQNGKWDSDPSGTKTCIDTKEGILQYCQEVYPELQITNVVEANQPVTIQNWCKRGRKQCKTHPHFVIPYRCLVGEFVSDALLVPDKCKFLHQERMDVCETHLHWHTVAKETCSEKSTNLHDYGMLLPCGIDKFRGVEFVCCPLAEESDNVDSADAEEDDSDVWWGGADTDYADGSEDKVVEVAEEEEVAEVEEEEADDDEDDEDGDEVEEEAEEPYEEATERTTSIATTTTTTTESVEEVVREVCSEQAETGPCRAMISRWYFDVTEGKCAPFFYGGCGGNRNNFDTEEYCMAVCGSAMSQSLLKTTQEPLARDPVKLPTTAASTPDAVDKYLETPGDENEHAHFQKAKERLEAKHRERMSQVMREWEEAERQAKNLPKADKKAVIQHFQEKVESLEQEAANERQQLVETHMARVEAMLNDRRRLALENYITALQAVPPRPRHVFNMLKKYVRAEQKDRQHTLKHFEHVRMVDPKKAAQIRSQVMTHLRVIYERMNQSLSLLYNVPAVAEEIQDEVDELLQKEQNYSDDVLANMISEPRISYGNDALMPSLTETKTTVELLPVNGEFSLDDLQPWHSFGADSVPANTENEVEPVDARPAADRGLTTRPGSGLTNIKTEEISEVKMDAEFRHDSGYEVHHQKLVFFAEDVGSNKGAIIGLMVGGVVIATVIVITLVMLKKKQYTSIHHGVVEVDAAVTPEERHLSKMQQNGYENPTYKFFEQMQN

O=C(O[C@@H]1Cc2c(O)cc(O)cc2O[C@@H]1c1cc(O)c(O)c(O)c1)c1cc(O)c(O)c(O)c1 [EPIGALOCATECHIN GALLATE]
Ratio IC50 (Homo sapiens [1]): > 50 | IC50 [2]: > 200 µM | IC50 [3]: 3.9 µM | IC50 [4]: 1.8 µM

Cc1nc(Nc2ccccc2C(=O)O)nc(Nc2ccccc2C(=O)O)c1[N+](=O)[O-]
inhibition (N2a [5]): 70% | IC50 [6]: < 10 µM

COc1cccc2c1C(=O)c1c(O)c3c(c(O)c1C2=O)C[C@@](O)(C(=O)CO)C[C@@H]3O[C@H]1C[C@H](N)[C@H](O)[C@H](C)O1
Activity (Homo sapiens [7]): 2.2 µM

CC(/C=C1\SC(=S)N(CC(=O)O)C1=O)=C\c1ccccc1
bioavailability [8]: 100%

Nc1nc2ccc(OC(F)(F)F)cc2s1 [RILUZOLE]
Tmax [9]: 2 h

COc1cccc2c1C(=O)c1c(O)c3c(c(O)c1C2=O)C[C@@](O)(C(C)=O)C[C@@H]3O[C@H]1C[C@H](N)[C@H](O)[C@H](C)O1 [DAUNORUBICIN]
Activity (Homo sapiens [7]): 2.2 µM | IC50 [10]: 1.1 µM

CN(C)c1ccc2nc3ccc(N(C)C)cc3[s+]c2c1.[Cl-] [METHYLENE BLUE ANHYDROUS]
half-life [11]: 5 h

C1=C2\Sc3ccccc3N2CCCCC[n+]2c(sc3ccccc32)/C=C/C=C2\Sc3ccccc3N2CCCCC[n+]2c(sc3ccccc32)/C=C/1
IC50 [12]: 0.08 µM

O=C(c1ccccc1)c1ccc(O)c(O)c1O
Activity (Homo sapiens [7]): 2.2 µM | IC50 [10]: 1.1 µM

Cc1cc(O)c2c(c1)C(=O)c1cc(O)cc(O)c1C2=O [EMODIN]
Activity (Homo sapiens [7]): 2.2 µM | IC50 [10]: 1.1 µM

O=C1/C(=C/c2ccc(-c3cccc(Cl)c3)o2)SC(=S)N1Cc1nc2ccccc2[nH]1
Activity (N2a [13]): 2% | Activity (Homo sapiens [14]): 0.94 µM | IC50 [15]: 0.67 µM

CCOC(=O)c1nn(-c2ccc(OC)cc2)c(=O)c2c(N)scc12
IC50 [16]: 5.1 µM

Cc1ccc(C(=O)N/N=C/c2ccc(O)c(O)c2O)cc1
Activity [17]: 1.1 µM | IC50 [12]: 0.97 µM

O=C(O)COc1ccc(Nc2c([N+](=O)[O-])cc([N+](=O)[O-])c3cccnc23)cc1
IC50 [6]: < 15 µM

O=C(O)CCN1C(=O)/C(=C/c2ccc(-c3cccc(Cl)c3)o2)SC1=S
Activity (Homo sapiens [14]): 0.3 µM | IC50 [15]: 0.47 µM

O=C1c2ccc(O)c(O)c2C(=O)c2c(O)ccc(O)c21 [QUINALIZARIN]
Activity (Homo sapiens [7]): 2.2 µM | IC50 [10]: 1.1 µM

O=C(NNc1nc(-c2ccc([N+](=O)[O-])cc2)cs1)c1ccc2[nH]cnc2c1
Kd [18]: 62 µM | Activity (Homo sapiens [19]): 0.7 µM | IC50 [3]: 1.6 µM

Nc1ccc2nc3ccc(N)cc3[s+]c2c1
IC50 [20]: 0.069 µM

CCOC(=O)c1nn(-c2ccccc2)c(=O)c2c(N)scc12
IC50 [16]: 6.3 µM

Cc1cc2nc3ccc(N(C)C)cc3[s+]c2cc1N [TOLONIUM CHLORIDE]
IC50 [20]: 0.069 µM

CN(C)c1ccc2nc3ccc(N)cc3[s+]c2c1
IC50 [20]: 0.069 µM | IC50 [4]: 2.6 µM

Oc1cc(O)c2c(c1)O[C@H](c1ccc(O)c(O)c1)[C@H](O)C2 [(-)-EPICATECHIN]
IC50 [4]: ≥ 200 µM

COc1ccccc1OCCNCC(O)COc1cccc2[nH]c3ccccc3c12 (configuration not stated) [CARVEDILOL]
IC50 [21]: 30 µM

O=C(O)CCN1C(=O)/C(=C/c2ccc(-c3cccc(Cl)c3)s2)SC1=S
Activity (Homo sapiens [14]): 0.77 µM | IC50 [15]: 0.97 µM

CCC(/C=C1\Sc2ccc(OC)cc2N1CCO)=C\c1sc2ccc(OC)cc2[n+]1CCO
IC50 [22]: 0.3 µM | IC50 [12]: 0.38 µM
